According to patent publication US11931351B2, “(S)-3-[1-methylpyrrolidin-2-yl]pyridine, analogues thereof, precursors thereof, or its derivatives, for the use as a pharmaceutical in form of a parenteral administration and a process for the preparation of an injectable substance” (priority 2019, dated 2024):
In brackets after ≈: the same amount, converted by molar mass.

How the values were obtained:
[1] = test system: HS-683 cells; experiment: cells; details: Homo sapiens, Hs 683, 96 h, read-out: concentration that inhibits 50% of the proliferation
[2] = test system: H1N1 virus; details: 0,002 mg/kg each 24 hours; 24 hours after treatment; versus control group
[3] = test system: IL-6 production; details: human PBLs; 1 mg/ml, 500 μg/ml, 300 μg/ml
[4] = test system: WI-38 cells; details: WI-38, 96 hours incubation, MTT
[5] = in vitro; details: human, A549 cells (lung adenocarcinoma epithelial cell line)
Method: (§1) In a further example cytotoxicity tests were performed with three different cell lines (FIG. 2a, 2b, 2c): • WI-38 (human diploid cell line from normal embryonic lung tissue) • A549 (human lung adenocarcinoma epithelial cell line) and • HS683 (human neuronal glioma cell line).
(§2) Thereby, cell viability was determined on the basis of the mitochondria-dependent reduction of MTT (3-[4,5-dimethyltiazol 2yl]-2,5-diphenyltetrazolium bromide) to formazan. […] Next cells were treated with 20 μl of MTT. After 3 hours of incubation at 37° C., the formazan blue formed in the cells was dissolved in 100 μl of SDS (sodium dodecylsulfate) for 3 hours in 37° C. The optical density was measured at 570 nm.
(§3) After the cytotoxicity tests LC50 (LC50-lethal concentration, 50%-dose required to kill half of the cells after a specified test duration) were estimated for each cell lines and PBLs (leukocytes of peripheral blood).

[6] = background statement; cited from earlier work
[7] = test system: human PBLs (leukocytes of peripheral blood); details: MTT, 48 hours
Method: as §2
(§4) After the cytotoxicity tests LC50 (LC50-lethal concentration, 50%-dose required to kill half of the cells after a specified test duration) were estimated for each cell lines and PBLs (leukocytes of peripheral blood). Additionally for PBLs LC10 and LC5 were calculated.
(§5) On the basis of the results of MTT assay for human leukocytes the LC50, LC10 and LC5 were evaluated.

[8] = after 72 h treatment, n=10 per group; compared to antimicrobians/antimycotics (group B) and no treatment (group C)
[9] = in vitro; details: human, peripheral blood leukocytes (PBLs)
Method: as §2, §4, §5

[10] = test system: HS-683 cells; details: HS-683, 96 hours incubation, MTT
[11] = test system: WI-38 cells; experiment: cells; details: Homo sapiens, WI-38, 96 h, read-out: concentration that inhibits 50% of the proliferation
[12] = test system: WI-38, A549 and HS 683; experiment: cells; details: Homo sapiens, read-out: doses that inhibit 50% of cell proliferation (summary)
[13] = test system: A549 cells; details: A549, 96 hours incubation, MTT
[14] = background statement; cited from earlier work; remark: listed apart in the source
[15] = in vitro; details: human, WI-38 cells (normal embryonic lung diploid cell line)
Method: as §1, §2, §3

[16] = in vitro; details: human, HS683 cells (neuronal glioma cell line)
Method: as §1, §2, §3

[17] = test system: A549 cells; experiment: cells; details: Homo sapiens, A549, 96 h, read-out: concentration that inhibits 50% of the proliferation

In the case of CN1CCC[C@H]1c1cccnc1 [(S)-3-[1-Methylpyrrolidin-2-yl]pyridine], the IC50 [1] was 2900 µg/mL (≈ 17.9 mM), the “egg production of H1N1 infected chicken” value [2] was “began to lay off eggs” and the “effect on IL-6 production” value [3] was “no effect”. For the same molecule, the “concentration that inhibits 99% of the proliferation” value [4] was 4.5 mg/mL, the CC50 at 48 h [5] was 4500 µg/mL (≈ 27.7 mM) and the “half-life in the body” value [6] was “approximately two”. For the same molecule, the LC5 [7] was 0.5 mg/mL, the LC10 [7] was 1 mg/mL (≈ 6.16 mM) and the “healing effect on ulcer” value [8] was “increased healing effect”. The CC50 at 48 h [9] was 7000 µg/mL (≈ 43.1 mM), the “concentration that inhibits 99% of the proliferation” value [10] was 5.5 mg/mL and the IC50 [11] was 1000 µg/mL (≈ 6.16 mM). For the same molecule, the IC50 [12] was > 1000 µg/mL, the “concentration that inhibits 99% of the proliferation” value [13] was 5.5 mg/mL and the miscibility with water [14] was “miscible with water”. The “solubility in alcohol, ether or light petroleum” value [14] was “readily soluble”, the CC50 at 48 h [15] was 3000 µg/mL (≈ 18.5 mM) and the CC50 at 48 h [16] was 3500 µg/mL (≈ 21.6 mM). The IC50 [17] was 2000 µg/mL (≈ 12.3 mM).
